Laboratory results reported in US4559323A, “A41030 Antibiotics” (Eli Lilly and Company, priority 1984, dated 1985).
Read-outs that look alike come from different tables or passages of the source.

How the values were obtained:
[1] = system: Peptococcus asaccharolyticus; assay: Agar-dilution MIC (anaerobes); type: cell-based; details: Table 14; Peptococcus asaccharolyticus 1302
[2] = system: Bacteroides vulgatis; assay: Agar-dilution MIC (anaerobes); type: cell-based; details: Table 14; Bacteroides vulgatis 1211
[3] = system: Hemophilus influenzae; assay: Agar-dilution MIC; type: cell-based; details: Table 17, 24 hours
[4] = system: Fusobacterium necrophorum; assay: Agar-dilution MIC (anaerobes); type: cell-based; details: Table 14; Fusobacterium necrophorum 6054A
[5] = system: Peptostreptococcus intermedius; assay: Agar-dilution MIC (anaerobes); type: cell-based; details: Table 14; Peptostreptococcus intermedius 1264
[6] = system: Propionibacterium acnes; assay: Agar-dilution MIC (anaerobes); type: cell-based; details: Table 14; Propionibacterium acnes 79
Source text: Antibiotic A41030 factors A, B and C have also been tested and found to be active against a genus of anaerobic bacteria identified as Propionibacterium acnes.

[7] = Solubility in solvents; type: physicochemical; details: solvents as named
Source text: The seven antibiotic factors are recovered from the fermentation and are obtained as a mixture, the A41030 complex. It will be recognized that the ratio of the factors in the A41030 complex will vary, depending upon the fermentation conditions used. The individual factors […], and G are separated and isolated as individual compounds, as hereinafter described.

[8] = system: Clostridium perfringens; type: cell-based; details: Table 14; Clostridium perfringens 81
[9] = system: Eubacterium aerofaciens; assay: Agar-dilution MIC (anaerobes); type: cell-based; details: Table 14; Eubacterium aerofaciens 1235
[10] = system: Staphylococcus epidermidis; assay: Agar-dilution MIC; type: cell-based; details: Table 17, 24 hours
Source text: (§1) The agar-dilution procedure described by the International Collaborative study (ICS) group was used to determine the minimum inhibitory concentrations (MIC's).

[11] = system: Streptococcus pyogenes; assay: Agar-dilution MIC; type: cell-based; details: Table 17; 24 hours; Streptococcus pyogenes C203
Source text: as §1

[12] = system: Streptococcus sp. (Group D); assay: Agar-dilution MIC; type: cell-based; details: Table 17, 24 hours
Source text: as §1

[13] = system: Streptococcus pneumoniae; assay: Agar-dilution MIC; type: cell-based; details: Table 17; 24 hours; Streptococcus pneumoniae Park I
Source text: as §1

[14] = system: Bacteroides fragilis; assay: Agar-dilution MIC (anaerobes); type: cell-based; details: Table 14
Source text: as §1

[15] = system: Peptostreptococcus anaerobius; assay: Agar-dilution MIC (anaerobes); type: cell-based; details: Table 14; Peptostreptococcus anaerobius 1428
[16] = system: Fusobacterium symbiosum; assay: Agar-dilution MIC (anaerobes); type: cell-based; details: Table 14; Fusobacterium symbiosum 1470
[17] = system: Klebsiella pneumoniae; assay: Agar-dilution MIC; type: cell-based; details: Table 17; 24 hours; Klebsiella pneumoniae X26
[18] = system: Peptococcus prevoti; assay: Agar-dilution MIC (anaerobes); type: cell-based; details: Table 14; Peptococcus prevoti 1281
[19] = system: Staph. aureus; assay: Experimental bacterial infection in mice, subcutaneous ED50; type: in vivo; details: two doses subcutaneously
Protocol: (§2) All of the A41030 factors tested have shown in vivo antimicrobial activity against experimental bacterial infections. When two doses of test compound were administered subcutaneously to mice in illustrative infections, the activity observed is measured as an ED50 value [effective dose in mg./kg. to protect fifty percent of the test animals: See Warren Wick, et al., J. Bacteriol. 81, 233-235 (1961)].

[20] = system: S. pyogenes; assay: as above; type: in vivo; details: two doses subcutaneously
Protocol: as §2

[21] = system: S. pneumoniae; assay: as above; type: in vivo; details: two doses subcutaneously
Protocol: as §2

[22] = system: Clostridium septicum; assay: Agar-dilution MIC (anaerobes); type: cell-based; details: Table 14; Clostridium septicum 1128
[23] = system: Escherichia coli; assay: Agar-dilution MIC; type: cell-based; details: Table 17; 24 hours; Escherichia coli TEM
[24] = system: Bacteroides corrodens; assay: Agar-dilution MIC (anaerobes); type: cell-based; details: Table 14; Bacteroides corrodens 1874
[25] = Electrometric titration (pKa); type: physicochemical; details: electrometric titration in 66% dimethylformamide in water
[26] = system: B. thetaiotaomicron; type: cell-based; details: Table 14; Bacteroides thetalotaomicron 1438
Source text: as §1

[27] = system: Staphylococcus aureus; assay: Agar-dilution MIC; type: cell-based
[28] = system: Salmonella typhi; assay: Agar-dilution MIC; type: cell-based; details: Table 17, 24 hours
[29] = system: Bacteroides melaninogenicus; assay: Agar-dilution MIC (anaerobes); type: cell-based; details: Table 14
[30] = system: Clostridium difficile; type: cell-based
Source text: The A41030 antibiotic factors A, B, C, D, E, F, and G, are also active against a number of strains of Clostridium difficile, as determined by the agar-dilution method.

## A41030 factor D
[1]
  MIC: ≤ 0.125 µg/mL
[2]
  MIC: 32 µg/mL
[3]; Haemophilus influenzae 76
  MIC: 8 µg/mL
[3]; Haemophilus influenzae C.L.
  MIC: 8 µg/mL
[4]
  MIC: ≤ 0.125 µg/mL
[5]
  MIC: 1.0 µg/mL
[6]
  MIC: 0.25 µg/mL
[7]
  Solubility: soluble in the same solvents as factor A
[8]
  MIC: 0.5 µg/mL
[9]
  MIC: 0.5 µg/mL
[10]; Staphylococcus epidermidis EPI1
  MIC: 0.25 µg/mL
[10]; Staphylococcus epidermidis EPI2
  MIC: 1 µg/mL
[11]
  MIC: 0.5 µg/mL
[12]; Streptococcus sp. Group D 9960
  MIC: 1 µg/mL
[12]; Streptococcus sp. Group D X66
  MIC: 1 µg/mL
[13]
  MIC: 0.5 µg/mL
[14]; Bacteroides fragilis 111
  MIC: 32 µg/mL
[14]; Bacteroides fragilis 1877
  MIC: 32 µg/mL
[14]; Bacteroides fragilis 1936B
  MIC: 32 µg/mL
[15]
  MIC: 0.5 µg/mL
[16]
  MIC: 0.5 µg/mL
[17]
  MIC: 128 µg/mL
[18]
  MIC: 0.25 µg/mL
[19]
  ED50: 0.339 mg/kg
[20]
  ED50: 3.24 mg/kg
[21]
  ED50: 2.21 mg/kg
[22]
  MIC: 0.25 µg/mL
[23]
  MIC: 64 µg/mL
[24]
  MIC: 32 µg/mL
[25]
  pKa, first titratable group: about 5.5
  pKa, second titratable group: ~7.6
[26]
  MIC: 32 µg/mL
[27]
  MIC: 0.25 µg/mL
[27]; Table 17, 24 hours, Staphylococcus aureus S13E
  MIC: 0.25 µg/mL
[27]; Table 17, 24 hours, Staphylococcus aureus V41
  MIC: 0.25 µg/mL
[27]; Table 17, 24 hours, Staphylococcus aureus X400
  MIC: 0.25 µg/mL
[28]; Salmonella typhi 1335
  MIC: > 128 µg/mL
[28]; Salmonella typhi X514
  MIC: > 128 µg/mL
[29]; Bacteroides melaninogenicus 1856/28
  MIC: > 64 µg/mL
[29]; Bacteroides melaninogenicus 2736
  MIC: 0.5 µg/mL
[30]
  MIC: 0.5 µg/mL
[30]; Table 16, C. difficile 78
  MIC: ≤ 0.25 µg/mL
[30]; Table 16, C. difficile 107B
  MIC: ≤ 0.25 µg/mL
[30]; Table 16, C. difficile 111F
  MIC: ≤ 0.25 µg/mL
[30]; Table 16, C. difficile 1153
  MIC: 1.0 µg/mL
[30]; Table 16, C. difficile 2634
  MIC: 0.5 µg/mL
[30]; Table 16, C. difficile 3424-5B
  MIC: 0.5 µg/mL
[30]; Table 16, C. difficile 3816
  MIC: 0.5 µg/mL
[30]; Table 16, C. difficile 3950
  MIC: 0.5 µg/mL
[30]; Table 16, C. difficile 6890
  MIC: 0.5 µg/mL
[30]; Table 16, C. difficile 8484
  MIC: ≤ 0.25 µg/mL
[30]; Table 16, C. difficile A-194
  MIC: ≤ 0.25 µg/mL
[30]; Table 16, C. difficile A-195
  MIC: ≤ 0.25 µg/mL
[30]; Table 16, C. difficile A-196
  MIC: 0.5 µg/mL
[30]; Table 16, C. difficile A-279
  MIC: ≤ 0.25 µg/mL
[30]; Table 16, C. difficile A-280
  MIC: ≤ 0.25 µg/mL
[30]; Table 16, C. difficile A-281
  MIC: 0.5 µg/mL
[30]; Table 16, C. difficile WAL-2112
  MIC: ≤ 0.25 µg/mL
[30]; Table 16, C. difficile WAL-3657
  MIC: ≤ 0.25 µg/mL
[30]; Table 16, C. difficile WAL-4268
  MIC: ≤ 0.25 µg/mL
